{"source": "patent US20060051787A1", "about": "“Quantitative PCR for analysis of DNA damage induced by PGHS-2 (COX-2) or other factors” (priority 2004, published 2006)", "key": {"8.8 kb mitochondrial DNA": {"test_system": "8.8 kb mitochondrial DNA", "test": "QPCR (14 cycles) followed by real-time PCR DNA damage analysis in XPA cells", "assay_type": "cell-based, human", "description": "QPCR products of 2.3 kb and 8.8 kb mitochondrial DNA were quantitated by real-time PCR with primers to produce a 112 bp fragment using the ABI PRISM® 7700 (Applied Biosystems). DNA replication was monitored by addition of a double-stranded DNA binding dye, SYBR® Green I (Applied Biosystems).\nReal-time PCR primers selected from the […].\nConcentrations of 8.8 kb PCR products were obtained after treatment of PGHS-2-expressing DNA damage repair deficient cells with t-BOOH (PGHS-2 substrate) and BPD (a premutagen) using a standard curve. The standard curve was obtained by real-time PCR with various concentrations of the 8.8 kb DNA.\nQPCR of a 16.2 kb, 8.8 kb and 2.3 kb mitochondrial DNA and 2.3 kb p53 and 0.5 kb β-globin nuclear DNA were carried out using biotinylated nucleotide primers. The reaction mixture contained 15 ng of template DNA, 1.2 mM MgSO4, 0.2 mM deoxynucleotide triphosphates, 0.2 μM biotinylated primers, and 1 unit of Platinum Pfx DNA polymerase (Life Technologies). Alternatively, the QPCR was carried out with the GeneAmp XL PCR kit (PerkinElmer/Roche) which contains rTth DNA polymerase XL and XL PCR buffer as previously described (9).\nThe PCR was initiated with a 90° C. hot-start addition of the polymerase. Initial denaturation was carried out for 1 min at 94° C. followed by cycles of denaturation at 94° C. for 15 sec, primer extension and annealing at 66° C. for 12 min and final extension at 72° C. for 10 minutes. The DNA product was separated by electrophoresis on 1% agarose gel and visualized by ethidium bromide staining.\nBest fitting real-time PCR primers were selected using Primer Express program (Applied Biosystems). The PCR primers selected for a real-time PCR were used to replicate 112 bp of PCR for both 8.8 kb and 2.3 kb mitochondrial DNA. The primer binding sites are located in the middle 2.1 kb section (the missing part in 6.7 kb internal control) of 8.8 kb fragment. […] The real-time PCR primers for 112 bp product (Tm, 79° C.) are […] […]\nStandard curve for real-time PCR analysis was obtained with the 8.8 kb standards ranging from 0.012 to 1200 pg. Concentrations of the 8.8 kb DNA preparation were spectrophotometrically measured. […] Using the standard curve to obtain relationship of log concentrations of various standards and Ct, QPCR product levels of the samples were calculated.\nReal-time PCR analysis was carried out and specificity of the real-time PCR of the 8.8 kb fragment was analyzed by (a) agarose gel electrophoresis of 40 cycle replicated 112 bp real-time PCR product and (b) melting curve of the 112 bp product. […]\nSingle 112 bp real-time PCR product was detected in each sample and a sharp melting curve at 79° C., which agreeded with the theoretical Tm, was obtained. […]"}, "[1]": {"test_system": "XPA Cells #32 (PGHS-/neo+)", "test": "Cytotoxicity: colony-forming ability of negative control XPA cells", "assay_type": "cell-based, human", "conditions": "treated two hours, incubated 10 days", "description": "(§1) XPA cells #12 (PGHS^+/neo^+) and #32 (PGHS^−/neo^+) were selected for cytotoxicity and mutagenicity assays. Cytotoxicity assays were carried out by assaying the loss of colony-forming ability as previously described (1).\n(§2) Cells were treated as follows: (a) no treatment, (b) 100 μM arachidonic acid (AA), (c) 200 μM AA, (d) 5 μM benzo(a)pyrene-7,8-dihydrodiol (BPD), (e) 5 μM BPD+100 μM AA, (f) 5 μM BPD+200 μM AA, (g) 100 μM butylated hydroxyanisole (BHA), (h) 100 μM BHA+5 μM BPD+100 AA and (i) 100 μM BHA+5 μM BPD+200 μM AA. BPD was dissolved in tetrahydrofuran.\n(§3) Cytotoxicity of environmental toxicants to PGHS-2^+/neo^+ (PGHS-2-dependent) XPA and wild type cells were assayed by measuring colony-forming ability. Mutagenicity of the chemical was assayed by measuring induction of 6-thioguanine resistance of the cells, which was a result of mutation of the cells to the HPRT-phenotype.\n(§4) Cytotoxicity assays were carried out by assaying the loss of colony-forming ability. Briefly, after harvesting, cells were plated at a cloning density of 600 cells/well in six-well plates and incubated for 7-12 days. The colonies were washed with PBS, fixed with methanol, stained with 0.04% methylene blue, and counted."}, "[2]": {"test_system": "XPA human skin fibroblast cell line which expressed cytochrome P450 1A1", "conditions": "by an endogenously formed metabolite of BPD; cited from earlier work"}, "[3]": {"test_system": "XPA Cells #12 (PGHS+/neo+)", "test": "Cytotoxicity: colony-forming ability of PGHS-2 expressing XPA cells", "assay_type": "cell-based, human", "conditions": "for Colony Number (% of Control): treated two hours, incubated 10 days", "description": "as §1, §2, §3, §4"}, "[4]": {"test_system": "16.2 kb mitochondrial DNA", "test": "QPCR DNA damage analysis in XPA cells #12", "assay_type": "cell-based, human", "conditions": "0.5 mM t-BOOH; 3 hours; 26 cycles; FIG. 5", "description": "Panel A, ethidium bromide staining of biotinylated mitochondrial DNA fragments (16.2 kb), Panel B, visualization of the biotinylated mitochondrial DNA fragments by chemiluminescent assay (ECL) system, Panel C, a negative control, ethidium bromide staining of biotinylated β-globin (0.55 kb) DNA fragments and Panel D, visualization of the biotinylated β-globin DNA fragments by an ECL system.\nLane 1, bp standards, lanes 2 and 3, cells treated with 1 mM t-BOOH+solvent for BPD (tetrahydrofuran), lanes 4 and 5, cells treated with 1 mM t-BOOH+5 μM BPD, lanes 6 and 7, cells treated with solvent for AA (ethanol), lanes 8 and 9, cells treated with 100 μM AA and lanes 10 and 11, cells treated with 100 μM AA+5 μM BPD. Cells were treated for 3 hours at 37° C., DNA was isolated and QPCRs were carried out using biotinylated nucleotide primers. […]\nDNA damage repair deficient XPA cells #12 (PGHS-2+) were grown and cells were treated for three hours at 37° C. with 0.5 mM or 1 mM t-BOOH with or without 5 μM to 15 μM BPD. […] DNA fragments were transferred to a nitrocellulose membrane and visualized by a streptavidin-horseradish peroxidase/chemiluminescent (ECL) system followed by quantitation with a densitometer. Visualization of the DNA fragments by the ECL system amplified intensity of each DNA band and made it possible to quantitate each DNA band using a densitometer. […]"}, "[5]": {"test_system": "16.2 kb mitochondrial fragment", "conditions": "cited from earlier work"}, "[6]": {"test_system": "17.7 kb fragment of the nuclear beta-globin gene", "conditions": "cited from earlier work"}, "[7]": {"conditions": "200 μM for 15 minutes, in 1.5 hours"}, "[8]": {"conditions": "200 μM for 60 minutes, in 3.5 hours"}}, "note": "Values joined by “and” are separate entries in the source; they are usually repeats but may differ in a detail not shown here. Identical values can stand only once. Like-named read-outs stand apart in the source and are kept apart here."}
{"smiles": "O[C@H]1C=Cc2c(cc3ccc4cccc5ccc2c3c45)[C@@H]1O", "note": "(relative stereo) [BPD, benzo(a)pyrene-trans-7,8-dihydrodiol]", "values": [{"measurement": "% mean value of control, 112.47 pg", "setting": "8.8 kb mitochondrial DNA; 5 mM BPD, samples 1 and 2", "value": "93.1 ± 2.7% and 111.9 ± 2.3%"}, {"measurement": "pg DNA after 14 cycles of first PCR", "setting": "8.8 kb mitochondrial DNA; 5 mM BPD, samples 1 and 2 = separate cell culture experiments", "value": "104.71 ± 3.02 pg and 125.89 ± 2.59 pg"}, {"measurement": "Colony Number (% of Control)", "setting": "[1]; 5 μM BPD", "value": "88.0 ± 3.3 % of Control"}, {"measurement": "mutation frequencies versus wild type cell line", "setting": "[2]", "value": "approximately three-fold higher mutation frequencies"}, {"measurement": "Colony Number (% of Control)", "setting": "[3]; 5 μM BPD", "value": "214.3 ± 7.1 % of Control"}, {"measurement": "colony number (text summary of Table 1)", "setting": "[3]; treatment for two hours", "value": "dramatically increased colony number"}]}
{"smiles": "CC(C)(C)OO", "note": "[t-BOOH, tert-butyl hydroperoxide]", "values": [{"measurement": "% mean value of control, 112.47 pg", "setting": "8.8 kb mitochondrial DNA; 0.5 mM t-BOOH, samples 1 and 2", "value": "70.6 ± 2.0% and 46.7 ± 1.9%"}, {"measurement": "pg DNA after 14 cycles of first PCR", "setting": "8.8 kb mitochondrial DNA; 0.5 mM t-BOOH, samples 1 and 2", "value": "79.40 ± 2.24 pg and 52.48 ± 2.19 pg"}, {"measurement": "16.2 kb PCR product level", "setting": "[4]", "value": "−50 % of control"}]}
{"smiles": "CCCCC/C=C\\C/C=C\\C/C=C\\C/C=C\\CCCC(=O)O", "note": "[AA, arachidonic acid]", "values": [{"measurement": "Colony Number (% of Control)", "setting": "[1]; 100 μM AA", "value": "70.1 ± 0.6 % of Control"}, {"measurement": "Colony Number (% of Control)", "setting": "[1]; 200 μM AA", "value": "72.0 ± 6.2 % of Control"}, {"measurement": "colony number (text summary of Table 1)", "setting": "[3]", "value": "dramatically increased colony number"}, {"measurement": "Colony Number (% of Control)", "setting": "[3]; 100 μM AA", "value": "133.3 ± 12.6 % of Control"}, {"measurement": "Colony Number (% of Control)", "setting": "[3]; 200 μM AA", "value": "140.5 ± 8.3 % of Control"}]}
{"smiles": "OO", "note": "[hydrogen peroxide]", "values": [{"measurement": "repair of DNA damage", "setting": "[5]; [7]", "value": "completely repaired"}, {"measurement": "repair of DNA damage", "setting": "[5]; [8]", "value": "no repair"}, {"measurement": "level of PCR products of the mitochondrial fragment relative to that of the nuclear beta-globin gene", "setting": "[5]; 200 and 400 μM for an hour", "value": "20%-30%"}, {"measurement": "repair of DNA damage", "setting": "[6]; [7]", "value": "completely repaired"}, {"measurement": "repair of DNA damage", "setting": "[6]; [8]", "value": "complete DNA repair"}]}
{"smiles": "COc1ccc(O)c(C(C)(C)C)c1", "note": "[BHA, butylated hydroxyanisole]", "values": [{"measurement": "Colony Number (% of Control)", "setting": "[1]; 100 μM BHA", "value": "96.0 ± 3.8 % of Control"}, {"measurement": "Colony Number (% of Control)", "setting": "[3]; 100 μM BHA", "value": "211.9 ± 4.8 % of Control"}, {"measurement": "colony number (text summary of Table 1)", "setting": "[3]; treatment for two hours", "value": "dramatically increased colony number"}]}
